In ChEMBL document CHEMBL1201862, “PubChem BioAssay data set” (2004):
pIC50: −log10 of the molar value. Blank lines part the entries; values can stand above or below the compound they belong to. Activity calls are given as the source filed them.

How the values were obtained:
[1] = molecular target: T1, Cytochrome P450 2D6 (Homo sapiens, UniProt P10635);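 further: CYP2D6 member of a cytochrome P450 panel assay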
[2] = tested on: HEK293; assay: cells; details: Homo sapiens
[3] = tested on: HEK293; assay: cells; details: Homo sapiens; remark: listed apart in the source
[4] = molecular target: T2, Delta-type opioid receptor (Homo sapiens, UniProt P41143); assay: HTS Image-Based Screen for Agonists of the DOR Receptor. [Related pubchem assays (depositor defined):AID1777, AID1786, AID2133]; type: functional
[5] = molecular target: Beta-galactosidase (Escherichia coli, UniProt Q8VNN2); type: functional
[6] = molecular target: T3, Kappa-type opioid receptor (Homo sapiens, UniProt P41145); type: functional
[7] = molecular target: Mu-type opioid receptor (Homo sapiens, UniProt P35372); assay: HTS Image-Based Screen for Agonists of the MOR Receptor. [Related pubchem assays (depositor defined):AID1777, AID1785, AID1786, AID2133]; type: functional;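 further: imaging of beta-arrestin GFP recruitment into spots after receptor activation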
[8] = molecular target: T2, Delta-type opioid receptor; assay: HTS Image-Based Screen for Antagonists of the DOR Receptor. [Related pubchem assays (depositor defined):AID1777, AID1785, AID1786, AID2133]; type: functional
[9] = molecular target: T1, Cytochrome P450 2D6; remark: listed apart in the source
[10] = molecular target: T3, Kappa-type opioid receptor; type: functional; remark: listed apart in the source
[11] = molecular target: CAAX prenyl protease 2 (Homo sapiens, UniProt Q9Y256); assay: human Rce1 protease inhibitors, dose response, biochemical, yeast membranes, quenched-peptide fluorescence, cherry-pick (AID 588849)
[12] = molecular target: Trypsin (Sus scrofa, UniProt P00761); assay: porcine trypsin inhibitors, dose response, selectivity assay for Rce1 protease inhibitor project, biochemical, quenched peptide fluorescence, cherry-pick (AID 488789)
[13] = molecular target: T4, CAAX prenyl protease 2 (Saccharomyces cerevisiae S288c, UniProt Q03530); type: biochemical
T4 sequence (Q03530 whole entry): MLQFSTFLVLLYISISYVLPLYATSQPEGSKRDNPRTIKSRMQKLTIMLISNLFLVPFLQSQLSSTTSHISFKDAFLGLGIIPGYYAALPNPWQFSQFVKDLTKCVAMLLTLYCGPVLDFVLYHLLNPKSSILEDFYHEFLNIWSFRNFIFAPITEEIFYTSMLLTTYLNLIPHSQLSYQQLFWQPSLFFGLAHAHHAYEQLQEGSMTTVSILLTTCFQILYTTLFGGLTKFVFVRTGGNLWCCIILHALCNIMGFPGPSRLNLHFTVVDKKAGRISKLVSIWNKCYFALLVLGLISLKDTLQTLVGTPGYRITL

[14] = C. albicans growth with fluconazole, confirmation, fluorescence, retest (AID 2467); type: functional, cell-based
[15] = NIH-3T3 fibroblast cytotoxicity, dose response, cytotoxicity control, cell-based, fluorescence, Alamar Blue, secondary assay (AID 2327); type: functional;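 further: NIH-3T3 mouse fibroblasts cultured with fluconazole at 8 µg/mL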
[16] = molecular target: T5, Short transient receptor potential channel 4 (Mus musculus, UniProt Q9QUQ5); assay: mouse TRPC4 channel activators, dose response, cell-based, HEK293 TRPC4/mu-opioid, Fluo-4 calcium (AID 434937); type: functional
T5 sequence (Q9QUQ5 whole entry): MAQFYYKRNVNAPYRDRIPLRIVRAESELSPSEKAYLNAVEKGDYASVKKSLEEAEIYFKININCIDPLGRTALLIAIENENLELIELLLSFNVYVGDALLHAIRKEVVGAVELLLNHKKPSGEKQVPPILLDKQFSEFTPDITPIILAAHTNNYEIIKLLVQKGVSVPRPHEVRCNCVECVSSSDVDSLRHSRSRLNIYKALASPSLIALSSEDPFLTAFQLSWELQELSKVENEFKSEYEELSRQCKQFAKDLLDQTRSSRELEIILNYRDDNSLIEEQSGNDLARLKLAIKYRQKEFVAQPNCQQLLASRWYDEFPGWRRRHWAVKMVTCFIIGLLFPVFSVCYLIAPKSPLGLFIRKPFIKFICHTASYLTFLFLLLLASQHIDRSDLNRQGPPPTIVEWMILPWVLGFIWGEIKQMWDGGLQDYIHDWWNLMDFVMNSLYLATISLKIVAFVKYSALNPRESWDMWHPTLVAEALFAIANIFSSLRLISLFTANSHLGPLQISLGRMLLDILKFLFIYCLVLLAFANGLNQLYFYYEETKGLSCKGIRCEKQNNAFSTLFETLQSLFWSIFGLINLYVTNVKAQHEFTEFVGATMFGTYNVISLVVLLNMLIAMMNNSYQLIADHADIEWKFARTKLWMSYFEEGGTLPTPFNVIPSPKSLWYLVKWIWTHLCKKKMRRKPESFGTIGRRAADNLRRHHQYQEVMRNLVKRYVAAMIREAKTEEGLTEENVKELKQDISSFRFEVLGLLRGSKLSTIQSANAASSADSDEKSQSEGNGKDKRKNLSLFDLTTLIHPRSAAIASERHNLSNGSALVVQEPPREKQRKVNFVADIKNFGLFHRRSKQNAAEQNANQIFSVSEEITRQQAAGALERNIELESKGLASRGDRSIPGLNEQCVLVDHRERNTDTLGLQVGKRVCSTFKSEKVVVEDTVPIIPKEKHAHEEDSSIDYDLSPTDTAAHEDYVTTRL

[17] = molecular target: T5, Short transient receptor potential channel 4; assay: mouse TRPC4 channel inhibitors, dose response, cell-based, HEK293 TRPC4/mu-opioid, Fluo-4 calcium (AID 434942); type: functional;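 further: potency of inhibitors blocking the TRPC4 calcium response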

T3 sequence (P41145 whole entry): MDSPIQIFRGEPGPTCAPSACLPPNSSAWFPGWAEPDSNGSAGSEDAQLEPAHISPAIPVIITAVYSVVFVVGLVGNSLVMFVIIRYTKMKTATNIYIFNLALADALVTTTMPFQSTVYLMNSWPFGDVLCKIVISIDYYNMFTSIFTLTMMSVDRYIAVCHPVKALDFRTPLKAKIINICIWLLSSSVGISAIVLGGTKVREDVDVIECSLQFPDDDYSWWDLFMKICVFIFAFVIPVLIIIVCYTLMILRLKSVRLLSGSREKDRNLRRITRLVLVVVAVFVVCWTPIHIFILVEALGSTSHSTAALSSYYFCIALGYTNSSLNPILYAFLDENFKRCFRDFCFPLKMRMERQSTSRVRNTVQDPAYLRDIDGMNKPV
T1 sequence (P10635 whole entry): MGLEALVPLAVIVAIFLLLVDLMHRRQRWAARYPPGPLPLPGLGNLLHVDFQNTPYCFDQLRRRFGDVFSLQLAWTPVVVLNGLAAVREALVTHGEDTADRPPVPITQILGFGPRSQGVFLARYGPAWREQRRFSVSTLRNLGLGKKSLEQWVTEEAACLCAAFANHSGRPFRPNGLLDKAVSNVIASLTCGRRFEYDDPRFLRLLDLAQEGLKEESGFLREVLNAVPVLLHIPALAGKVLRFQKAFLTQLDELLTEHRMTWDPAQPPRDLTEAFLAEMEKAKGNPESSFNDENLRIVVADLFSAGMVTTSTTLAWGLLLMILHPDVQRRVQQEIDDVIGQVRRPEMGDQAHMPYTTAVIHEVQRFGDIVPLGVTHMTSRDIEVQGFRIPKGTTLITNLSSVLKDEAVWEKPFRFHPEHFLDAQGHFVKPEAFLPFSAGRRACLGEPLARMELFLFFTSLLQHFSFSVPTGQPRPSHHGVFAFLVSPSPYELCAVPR
T2 sequence (P41143 whole entry): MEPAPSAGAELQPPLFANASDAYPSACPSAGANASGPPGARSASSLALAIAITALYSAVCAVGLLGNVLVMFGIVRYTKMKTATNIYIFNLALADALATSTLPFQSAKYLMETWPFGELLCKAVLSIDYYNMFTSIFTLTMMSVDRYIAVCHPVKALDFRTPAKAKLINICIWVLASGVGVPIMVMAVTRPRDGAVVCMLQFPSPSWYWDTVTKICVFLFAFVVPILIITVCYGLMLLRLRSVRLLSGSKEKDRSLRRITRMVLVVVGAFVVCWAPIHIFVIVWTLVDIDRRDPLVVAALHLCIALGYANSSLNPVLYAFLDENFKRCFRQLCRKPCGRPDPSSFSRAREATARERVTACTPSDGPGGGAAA
CAAX prenyl protease 2 (Homo sapiens, UniProt Q9Y256), sequence (Q9Y256 whole entry): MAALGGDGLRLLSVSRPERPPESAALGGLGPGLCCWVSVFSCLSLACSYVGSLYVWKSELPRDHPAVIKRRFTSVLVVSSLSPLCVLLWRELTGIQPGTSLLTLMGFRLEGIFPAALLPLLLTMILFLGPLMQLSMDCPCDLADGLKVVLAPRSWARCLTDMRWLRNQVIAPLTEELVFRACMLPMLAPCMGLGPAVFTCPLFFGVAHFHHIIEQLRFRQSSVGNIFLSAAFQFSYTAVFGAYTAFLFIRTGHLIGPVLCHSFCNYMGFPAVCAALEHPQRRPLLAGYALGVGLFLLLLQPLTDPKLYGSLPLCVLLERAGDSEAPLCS
Beta-galactosidase, sequence (Q8VNN2 whole entry): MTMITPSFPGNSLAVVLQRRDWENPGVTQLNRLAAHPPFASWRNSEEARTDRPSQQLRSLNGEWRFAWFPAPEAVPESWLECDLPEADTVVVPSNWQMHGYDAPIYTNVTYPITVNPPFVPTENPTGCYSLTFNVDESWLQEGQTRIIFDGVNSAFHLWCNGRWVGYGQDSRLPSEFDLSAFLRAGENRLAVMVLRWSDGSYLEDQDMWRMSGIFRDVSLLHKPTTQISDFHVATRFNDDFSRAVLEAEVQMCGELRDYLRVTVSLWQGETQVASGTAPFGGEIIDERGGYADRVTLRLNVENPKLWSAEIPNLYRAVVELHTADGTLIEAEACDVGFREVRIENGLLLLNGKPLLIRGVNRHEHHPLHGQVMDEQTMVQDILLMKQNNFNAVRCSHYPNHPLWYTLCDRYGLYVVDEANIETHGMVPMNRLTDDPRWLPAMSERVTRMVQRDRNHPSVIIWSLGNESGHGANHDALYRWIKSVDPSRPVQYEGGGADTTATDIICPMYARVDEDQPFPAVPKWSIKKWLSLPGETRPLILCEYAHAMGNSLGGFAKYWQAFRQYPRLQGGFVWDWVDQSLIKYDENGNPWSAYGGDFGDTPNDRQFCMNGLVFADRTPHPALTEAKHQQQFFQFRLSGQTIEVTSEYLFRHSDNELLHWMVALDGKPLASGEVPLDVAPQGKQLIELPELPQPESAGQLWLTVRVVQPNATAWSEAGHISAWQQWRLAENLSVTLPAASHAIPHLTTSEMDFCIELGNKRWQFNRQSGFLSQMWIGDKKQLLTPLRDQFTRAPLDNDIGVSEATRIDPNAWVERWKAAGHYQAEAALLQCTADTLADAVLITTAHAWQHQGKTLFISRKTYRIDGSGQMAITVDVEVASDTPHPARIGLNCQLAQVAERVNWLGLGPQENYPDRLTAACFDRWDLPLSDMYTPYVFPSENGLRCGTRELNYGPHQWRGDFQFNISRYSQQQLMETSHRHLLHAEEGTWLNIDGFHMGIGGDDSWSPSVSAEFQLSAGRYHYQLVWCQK
Trypsin, sequence (P00761 whole entry): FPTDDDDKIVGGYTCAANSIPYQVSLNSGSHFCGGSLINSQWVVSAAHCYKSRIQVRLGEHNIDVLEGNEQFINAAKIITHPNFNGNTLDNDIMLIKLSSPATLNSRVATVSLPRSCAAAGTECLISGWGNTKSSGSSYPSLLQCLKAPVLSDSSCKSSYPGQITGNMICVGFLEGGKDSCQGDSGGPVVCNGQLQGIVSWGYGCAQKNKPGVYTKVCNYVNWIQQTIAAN
Mu-type opioid receptor, sequence (P35372 whole entry): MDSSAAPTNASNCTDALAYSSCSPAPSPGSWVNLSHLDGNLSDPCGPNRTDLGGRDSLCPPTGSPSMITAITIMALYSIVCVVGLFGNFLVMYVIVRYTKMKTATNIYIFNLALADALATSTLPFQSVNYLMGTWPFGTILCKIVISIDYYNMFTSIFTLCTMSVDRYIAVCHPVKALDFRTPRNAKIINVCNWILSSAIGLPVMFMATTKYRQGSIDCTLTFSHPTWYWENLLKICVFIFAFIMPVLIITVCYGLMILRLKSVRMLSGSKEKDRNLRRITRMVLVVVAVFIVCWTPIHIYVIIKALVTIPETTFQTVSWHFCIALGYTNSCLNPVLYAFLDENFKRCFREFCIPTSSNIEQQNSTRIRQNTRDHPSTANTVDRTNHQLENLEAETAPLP

SMILES: CC1=C([N+](=O)[O-])C(c2cccc(Br)c2)C2=C(O)c3ccccc3C2=N1 (stereo not drawn)
EC50 [2]: > 59.6 µM (inactive)
EC50 [3]: > 59.6 µM (inactive)

SMILES: COc1ccc(-c2csc(N3C(=N)SCC3=O)n2)cc1
EC50 [4]: > 32 µM (inactive)
EC50 [5]: > 31.5 µM (inactive)
IC50 [6]: 12.8 µM (active)
EC50 [7]: > 32 µM (inactive)
IC50 [8]: > 32 µM (inactive)
AC50 [9]: 11.2 µM (inconclusive)
pIC50 [10]: < 4.49

SMILES: CC(C)(C)C(=O)C[n+]1ccc(C(N)=O)cc1
AC50 [11]: 12.5 µM (active)
AC50 [12]: 13.4 µM (active)
AC50 [13]: 15.1 µM (active)

SMILES: Cc1ccccc1C(=O)NNC(=S)NC(=O)c1ccc(Cl)cc1Cl
EC50 [14]: 1.75 µM (active)
EC50 [15]: > 160 µM (inactive)
EC50 [16]: 1.33 µM (active)

Now from value to compound:

AC50 [1]: inconclusive
SMILES: CCN1CCN(c2cc(=O)n(-c3cc(Cl)ccc3C)c(=O)[nH]2)CC1

EC50 [17]: 5.31 µM (active)
EC50 [16]: 9.44 µM (active)
SMILES: CCn1c(SCC(=O)c2cc(C)n(CC3CCCO3)c2C)nc2ccccc21 (stereo not drawn)
